Assays:
[1] = system: intraocular pressure (I.O.P.); assay: antiglaucoma activity in stable glaucoma induced by chymotrypsin injection into the eye; format: in vivo; settings: 0.01% aq. solution, rabbits
Procedure: The compounds were also tested for antiglaucoma activity in rabbits with stable glaucoma induced by δ-chymotrypsin injection into the eye as described in detail in R. Mechoulam et al., On the therapeutic possiblities of some cannabinoids in "The Therapeutic Potential of Marihuana" (eds S. Cohen. R.C. Stillman) Plenum Press, New York, 1975. pp. 35-48). The compounds were compared in activity to that of pilocarpine (a standard antiglaucoma drug) which at 0.01% aq. solution reduces the intraocular pressure (I.O.P.) and delays recovery to half time of the original I.O.P. about 30 hours. […] The compounds were dissolved as described for analgesia and further diluted with saline to obtain the required concentration.

[2] = system: mice; assay: standard hot plate test (analgesia); format: in vivo; settings: Mus musculus; in mice, intravenous injection in the tail vein; read-out: Analgesia ED=50
Procedure: Analgesia. The novel compounds were tested in the standard hot plate test.
Represenatative results are presented in Table I. The compounds were dissolved in a detergent (Emulphor): ethanol: saline (5:5:90) and administered by intravenous injection in the tail vein with an injection volume of 0.1 ml/10g of body weight.

[3] = system: emesia caused by an antieoplastic drug (cisplatin); assay: antiemetic activity against cisplatin-caused emesis; format: in vivo; settings: Columbidae, sc, in pigeons, administered subcutaneously, read-out: Reduction of vomiting(50%)
Procedure: The compounds also tested in pigeons against emesia caused by an antieoplastic drug (cisplatin) according to the method described in Feigenbaum et al., Eur. J. Pharmacol. 169, 159-165 (1989). Representative results are presented in Table I. The compounds were dissolved as described above for the tests on analgesia, and administered subcutaneously. The injection volume was 1.0 ml/kg body weight.

[4] = system: Arachidonic Acid-Induced Paw Edema; assay: arachidonic acid-induced paw edema; format: in vivo; settings: Mus musculus, po, compared to vehicle treated controls (peanut oil orally), N=5 mice/group, read-out: percent inhibition of paw edema; for inhibition at 0.05 mg/kg: dose 0.050 mg/kg; for inhibition at 0.1 mg/kg: dose 0.100 mg/kg; for inhibition at 0.25 mg/kg: dose 0.250 mg/kg
Procedure: The compounds were tested by a method reported by W. Calhoun et al., Agents and Actions, 21, 306-a309 (1987). Water was substituted for mercury as the displacement medium. PAF (1.0 µg) or arachidonic acid (1.0mg) dissolved in 50 µl of 5% ethanol in saline was injected s.c. into the plantar surface of the right hind paw of female mice (20-25g). The mice were under ether anesthesia during this procedure. The volume of the right foot was measured to the level of the lateral malleous by water displacement before treatment and 15 min after PAF injection or 30 min after arachidonic injection. The change in paw volume was calculated for each mouse.

[5] = system: mouse vas deferens; assay: electrically-evoked twitch response of the mouse vas deferens
Procedure: R.G. Pertwee, L.A. Stevenson, D.B. Elrick, R. Mechoulam, A.D. Corbett, Brit. J. Pharmacol. 105, 980 (1992). […] The structure of anandamide was established by mass spectrometry (MS) and nuclear magnetic resonance (NMR) spectroscopy. Additional data were obtained from the GC-MS and CID measurements of the trimethylsilyl (TMS) derivative of the material.
Fig. 2. Inhibition of vas deferens twitch response by natural anandamide. Vasa deferentia obtained from MFI mice were mounted in 4 ml siliconized organ baths under an initial tension of 0.5 g. The baths contained Mg++ -Free Krebs solution which was kept at 37 C and bubbled with 95% 02 and 5% CO2 . Tissues were stimulated supramaximally with 0.5 s trains of 3 pulses (train frequency 0.1 Hz: pulse duration 0.5 ms). Isometric contractions were recorded. Natural anandamide was dispersed in Tween 80 and saline (see ref. 12) and added in volumes of 40 µl.

[6] = target: T1, cannabinoid receptor (Rattus norvegicus, UniProt P20272); assay: centrifugation radioligand binding assay with [3H]HU-243 on synaptosomal membranes
T1 construct: Synaptosomal membranes were prepared from rat whole brain-minus brainstem; from tissue; host or cells: rat whole brain minus brainstem, synaptosomal membranes (Sprague-Dawley males)
T1 sequence (P20272 whole entry): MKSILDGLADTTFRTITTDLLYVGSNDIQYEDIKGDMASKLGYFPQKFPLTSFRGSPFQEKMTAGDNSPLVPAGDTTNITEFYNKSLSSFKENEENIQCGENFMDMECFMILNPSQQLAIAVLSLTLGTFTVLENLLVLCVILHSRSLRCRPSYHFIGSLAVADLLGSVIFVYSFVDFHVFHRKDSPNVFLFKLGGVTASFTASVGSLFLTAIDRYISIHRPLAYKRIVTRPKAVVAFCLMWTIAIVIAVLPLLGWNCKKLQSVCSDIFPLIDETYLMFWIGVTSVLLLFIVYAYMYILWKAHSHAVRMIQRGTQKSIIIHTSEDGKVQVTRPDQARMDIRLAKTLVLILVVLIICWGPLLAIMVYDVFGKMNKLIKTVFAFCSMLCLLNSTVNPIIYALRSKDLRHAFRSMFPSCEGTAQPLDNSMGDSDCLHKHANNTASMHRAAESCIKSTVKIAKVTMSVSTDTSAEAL
Procedure: To screen for endogenous cannabinoid compounds there were tested brain-derived fractions using a centrifugation radioligand binding assay. […] Particular attention was paid to the binding of [^3H]HU-243 to the siliconized polypropylene microfuge tubes in which the assay was conducted. Normally, about 15-20% of the added [^3H]HU-243 adheres to the microfuge tube, with the amount increasing slightly when unlabelled cannabinoid drugs displace the radioligand from the receptor.
Synaptosomal membranes were prepared from rat whole brain-minus brainstem (Sprague-Dawley males, 430-470g). [^3H]HU-243 (45-55 pM) was incubated with synaptosomal membranes (protein content 3-4 µg) for 90 min at 30°C with either the indicated concentrations of anandamide or the vehicle alone (fatty acid-free bovine serum albumin, final concentration-0.5 mg/ml). Bound and free radioligand were separated by centrifugation (see ref. 8 for full details of the assay). The data were normalized to 100% of specific binding, which was determined with 50 nM unlabeled HU-243. The amount of specific binding was 77-82% of the total radioactivity bound to the membranes. Data points (□, ▲) represent the average of triplicate determinations from two independent experiments.

Compound | ED50 [2] | ED50 [3] | inhibition at 0.05 mg/kg [4] | inhibition at 0.1 mg/kg [4] | inhibition at 0.25 mg/kg [4] | further results
CC[C@@H]1C(=O)OC[C@@H]1Cc1cncn1C [pilocarpine] | – | – | – | – | – | delays recovery to half time of the original I.O.P. [1]: about 30 hours
CCCCC/C=C\C/C=C\C/C=C\C/C=C\CCCC(=O)NCCO [Arachidonylethanolamide, 5,8,11,14-icosatetraenamide, (N,-2-hydroxyethyl)-(all-Z)] | 4.2 mg/kg | 2.5 mg/kg | 74.2% | 98% | 100% | inhibition at 0.01 mg/kg ([4]; dose 0.010 mg/kg): 56.2%; inhibition at 0.025 mg/kg ([4]; dose 0.025 mg/kg): 58.4%; inhibition of the twitch response ([5]; electrically-evoked, mouse vas deferens): concentration-dependent inhibition; reversal of the inhibition of the twitch response by naloxone ([5]; naloxone 300 nM): not reversed
CC/C=C\C/C=C\C/C=C\C/C=C\C/C=C\C/C=C\CCC(=O)NCCO [4,7,10,13,16,19-docosahexaenylethanolamide] | 6.1 mg/kg | 4.8 mg/kg | 52.4% | 66.8% | 72% | –
CCCCC/C=C\C/C=C\C/C=C\C/C=C\CCCC(=O)NCC(C)(C)O [arachidonoyl-β-dimethylethanolamide] | – | – | – | – | – | Ki ([6]; synthetic compounds, prepared and tested): 162 ± 34.1 nM
CCCCC/C=C\C/C=C\C/C=C\C/C=C\CCCCCC(=O)NCCO [cis-7,10,13,16-docosatetraenoylethanolamide] | – | – | – | – | – | Ki ([6]; compounds isolated from the brain and synthesized): 34.4 ± 3.2 nM

From patent EP0670826B1, “FATTY ACID DERIVATIVES AND PHARMACEUTICAL COMPOSITIONS CONTAINING THEM” (YISSUM RESEARCH DEVELOPMENT COMPANY OF THE HEBREW …, priority 1992, dated 1994)
